Measured values from US7494980B2, “Antimicrobial peptide and methods of use thereof” (The United States of America as represented by the …, priority 2003, dated 2009).
Ends that are not written are not given here.

Key:
S. gordonii ATCC 51656 = assay: Bactericidal assay (log reduction in viable counts); assay type: cell-based, Streptococcus gordonii
Source text: Strains used in Examples 3-6 included ATCC and laboratory strains of different oral bacteria. These included: Actinomyces naeslundii strain T14V-J1, Actinomyces israelii ATCC 10049, Streptococcus mutans strains LT 11 and ATCC 25175, Streptococcus sobrinus ATCC 33478, Streptococcus gordonii strains DL1 and ATCC 51656, Streptococcus sanguis strains SK36 and ATCC 10556, Streptococcus salivarius ATCC 9222, Streptococcus oralis strains 34 and ATCC 35037, Lactobacillus salivarius ATCC 29602, Lactobacillus acidophilus ATCC 4357, and Actinobacillus actinomycetemcomitans ATCC 43718. S. mutans strain LT 11 was kindly provided by Lin Tao, University of Illinois at Chicago, Ill. S. gordonii DLI, S. sanguis SK36, and S. oralis 34 were provided by John Cisar, National Institute of Dental and Craniofacial Research, NIH, Bethesda, Md.
The bactericidal assay was performed according to procedures described by Miyasaki et al. (1997, 1998) with a slight modification. […] Susceptibility was determined by examining the log reduction in viability counts of organisms that had been exposed to different concentrations of KSL. […] Bactericidal activity was also expressed as the 99% effective dose (ED99), which is the concentration of the antimicrobial decapeptide at which there is a 2-log or more reduction in c.f.u. […]
In addition to the determinations of MICs and MBCs of KSL, log reductions in viable counts of selected oral bacteria caused by KSL were also determined. […] With the exception of Actinobacillus actinomycetemcomitans, for which the assays were performed in 0.01% BHI, bactericidal action of KSL was determined in isotonic HBSS after incubation with the targeted bacteria for 1 h at 37° C. KSL at 6.25 μg ml^−1, which was determined to be the 99% effective dose (ED99), caused more than 2 log reductions in viable counts of the organisms tested, which included L. salivarius ATCC 29602 (FIG. 3a), S. mutans ATCC 25175^T (FIG. 3b), S. gordonii ATCC 51656 (FIG. 3c), and Actinobacillus actinomycetemcomitans ATCC 43718 (FIG. 3d).

[1] = system: saliva bacteria (facultative anaerobic oral bacteria collected from saliva); assay: In vitro killing of saliva bacteria; assay type: cell-based; details: 200 μg KSL ml^−1, 30 min at 37° C., vs PBS
Description: The killing assay of saliva bacteria was done according to procedures established by Helmerhorst et al. (1999). Unstimulated saliva was collected from four healthy individuals who had refrained from eating for at least 2 hours. The study was approved by the Institutional Review Board of the Walter Reed Army Institute of Research and informed consent and sample donation consent were obtained from all volunteers. Pooled saliva was initially spun at 500 r.p.m. in an Eppendorf centrifuge (model 5810R) for 10 min at 4° C. to remove epithelial cells and mucus. Saliva bacteria were collected by spinning the supernatant at 4000 r.p.m. for 15 min at 4° C. The pellet was washed three times in 10 mM potassium phosphate buffer (PPB) and suspended in the same buffer to give approximately 1.0×10^7 cells ml^−1. Bacterial suspension (250 μl) was mixed with 250 μl peptide to obtain final peptide concentrations of 12.5, 25, 50, 100 and 200 μg ml^−1. After incubation of the mixture at 37° C. for 30 min, cells were spun down to remove KSL, washed once in PBS having a pH of 7.4 and suspended in PBS before spiral-plating 50 μl of the treated and untreated cells in different dilutions on BAP. The negative control was exposed to buffer only. Saliva bacteria exposed to 0.12% aqueous chlorhexidine served as positive controls. […]

## KKVVFKVKFK-NH2 [KSL, lys-lys-val-val-phe-lys-val-lys-phe-lys]
S. gordonii ATCC 51656; 6.25 μg ml^−1, HBSS, FIG. 3c
  log reduction in viable counts: more than 2 log
S. gordonii ATCC 51656; concentrations of <10 μg ml^−1
  reduction in viability: > 3 logs
S. gordonii ATCC 51656; isotonic HBSS, 1 h at 37° C.
  ED99 (99% effective dose): 6.25 µg/mL
[1]
  log reduction in facultative anaerobes in saliva: 1.05 log
